From patent US10441599B2, “Pharmaceutical composition containing Ginkgolide B and blood platelet prostaglandin cyclooxygenase inhibitor and method for preparation thereof and use thereof” (priority 2014, dated 2019)

What was measured:
Format in all cases: in vivo, Japanese large-ear white rabbits
[1] = tested on: rabbit platelet aggregation induced by PAF; assay: Platelet aggregation rate induced by PAF in platelet-rich plasma of dosed rabbits; settings: for Platelet aggregation inhibition rate (%) / platelet aggregation rate, 1 min / platelet aggregation rate, 5 min / maximum platelet aggregation rate (MAX): rabbits 5.0 mg/kg once daily 7 days; for Platelet aggregation inhibition rate (%) / maximum platelet aggregation rate (MAX): PAF-induced; for Platelet aggregation inhibition rate (%): relative to saline group; for platelet aggregation rate, 1 min / platelet aggregation rate, 5 min / maximum platelet aggregation rate (MAX): PRP, x ± s, n = 8; for platelet aggregation rate, 1 min: 1 min after addition of 10 μL PAF; for platelet aggregation rate, 5 min: 5 min after addition of 10 μL PAF; for maximum platelet aggregation rate comparing with the saline group: under the induction of PAF, p<0.01, p<<0.05
Protocol: 128 Japanese large-ear white rabbits with a weight of (2.0±0.2) kg, half male and half female, were provided by Chongqing Medical University Experimental Animal Center [animal certification number: XCXK (Yu) 20020001].
Platelet activation factors (PAF) (cayman, lot number: 011219) was dissolved in the Tris-NaCl solution containing 0.25% of calf serum albumin at a pH of 7.6, to a final concentration of 3.6 nmoL/L; sodium citrate (Beijing Zhongshanjinqiao Biotechnology Company, lot number: 20130117) dissolved in the distilled water with 3.8% concentration; rabbit β-thromboglobulin (β-TG) ELISA kit (FOCUS, lot number: 20130224), rabbit platelet factor 4 (PF-4) (lot number: ELISA kit (FOCUS, lot number: 20130301). TYXN-96 multifunctional intelligent aggregometer (Shanghai General Technique Research Institute); Scanning electron microscope S-3000 N (Hitachi Limited); ELX-800 Absorbance Reader (BioTek Instruments, Inc.).
128 Japanese large-ear white rabbits were randomly assigned to 16 groups, with 8 rabbits in each group: (1) Saline group, (2) Ginkgolide B group, (3) Aspirin group, (4) Jinnaduo group, (5) Composition 1 group, (6) Composition 2 group, (7) Composition 3 group, (8) Composition 4 group, (9) Composition 5 group, (10) Composition 6 group, (11) Composition 7 group, (12) Composition 8 group, (13) Composition 9 group, (14) Composition 10 group, (15) Composition 11 group, (16) Composition 12 group. All groups were administered with a clinically used route and dosage for 7 days continuously.
After 7 days of administration, 10.5 ml of blood was taken from the heart of each animal, wherein 1.5 ml of plasma was used for taking serum and the rest 9 ml of plasma was subjected to 3.8% sodium citrate at 1:9 for anticoagulation, centrifuging for 10 minutes at 800 r/min, and taking the supernatant to obtain platelet-rich plasma (PRP).), wherein 100 μl of the PRP was taken for electron microscope examination, and the rest of the PRP was used for detecting of the platelet aggregation rate; the remaining portion was centrifuged for 15 min at a speed of 3000 r/min, and platelet-depleted plasma (PPP) was obtained. PPP was used to adjust the number of platelet in PRP, to be at 360×10^9/L. The platelet aggregation rate and maximum platelet aggregation rate was studied and recorded after 1 min, 5 min of addition of 10 μL of PAF.
The statistical analysis is carried out using SPSS 18.0 software, and the platelet aggregation rates, the percentage of types of platelet morphology and the concentration of PF-4 and β-TG were analyzed using two-sample t-test. P-values<0.05 were considered statistically significant.

[2] = tested on: platelets (morphology types after PAF); assay: Scanning electron microscopy study of platelet morphology after addition of PAF; settings: for Types of morphology (%): Aggregated / Types of morphology (%): Circle / Types of morphology (%): Flat / Types of morphology (%): Tree like: rabbits 5.0 mg/kg once daily 7 days, PRP + PAF, SEM, 100 platelets, x ± s, n = 8; for Aggregated type platelets under scanning electron microscope: under induction of PAF, 2000-fold SEM
Protocol: 128 Japanese large-ear white rabbits with a weight of (2.0±0.2) kg, half male and half female, were provided by Chongqing Medical University Experimental Animal Center [animal certification number: XCXK (Yu) 20020001]. 128 Japanese large-ear white rabbits were randomly assigned to 16 groups, with 8 rabbits in each group: […] All groups were administered with a clinically used route and dosage for 7 days continuously. […] The types of platelet under the electron microscope includes: […] (3) Flat type has a dense core in the center and a wide transparent peripheral zone which has a smooth periphery or small bulges. (4) Aggregated-type is usually composed of several to dozens of platelets, with different sizes of the aggregates, wherein the platelets are mutually connected, some of the platelets are integrally fused into a whole, and the foot processes of the peripheral part are prominent.

[3] = tested on: rabbit platelet factor 4 (PF-4); assay: Determination of PF-4 level in serum (ELISA) after PAF induction; settings: for PF-4 level: rabbits 5.0 mg/kg once daily 7 days, serum after PAF induction, x ± s, n = 8
Excerpt: (§1) 128 Japanese large-ear white rabbits with a weight of (2.0±0.2) kg, half male and half female, were provided by Chongqing Medical University Experimental Animal Center [animal certification number: XCXK (Yu) 20020001]. […] ELISA kit (FOCUS, lot number: 20130301). TYXN-96 multifunctional intelligent aggregometer (Shanghai General Technique Research Institute); Scanning electron microscope […]-800 Absorbance Reader (BioTek Instruments, Inc.). 128 Japanese large-ear white rabbits were randomly assigned to 16 groups, with 8 rabbits in each group: […] All groups were administered with a clinically used route and dosage for 7 days continuously. […] The plasma was rested at 4° C. for 4 hours, and 200 μL of serum was taken for detection. The specific operation is carried out according to the kit specification, and the result was read by the Absorbance Reader.

[4] = tested on: rabbit β-thromboglobulin (β-TG); assay: Determination of β-TG level in serum (ELISA) after PAF induction; settings: for level of β-TG compared with the saline group: p<0.01, p<0.05; for β-TG level: rabbits 5.0 mg/kg once daily 7 days, serum after PAF induction, x ± s, n = 8
Excerpt: as §1

Structure (SMILES) | Platelet aggregation inhibition rate (%) [1] | platelet aggregation rate, 1 min [1] | platelet aggregation rate, 5 min [1] | maximum platelet aggregation rate (MAX) [1] | maximum platelet aggregation rate comparing with the saline group [1] | Types of morphology (%): Aggregated [2] | Types of morphology (%): Circle [2] | Types of morphology (%): Flat [2] | Types of morphology (%): Tree like [2] | Aggregated type platelets under scanning electron microscope [2] | PF-4 level [3] | level of β-TG compared with the saline group [4] | β-TG level [4] | level of PF-4 compared with the saline group ([3]; p<0.01, p<0.05)
CC(=O)Oc1ccccc1C(=O)O [Aspirin, acetylsalicylic acid] | 31.53% | 25.28 ± 5.06 | 36.89 ± 5.53 | 48.08 ± 5.87 | significant difference | 54.0 ± 14.3 % | 5.8 ± 2.6% | 25.5 ± 8.4 % | 14.7 ± 7.0 % | increased number of Aggregated type platelets | 1.489 ± 0.228 µg/mL | didn't decrease significantly | 1.504 ± 0.244 µg/mL | –
CC1C(=O)OC2C(O)C34C5CC(C(C)(C)C)C36C(OC(=O)C6O)OC4(C(=O)O5)C12O (stereo not drawn) [Ginkgolide B] | 44.66% | 21.36 ± 4.15 | 33.54 ± 5.48 | 38.86 ± 4.74 | significant difference | 22.3 ± 9.6 % | 31.6 ± 6.4 % | 46.1 ± 8.3 % | 15.8 ± 6.8 % | rarely seen | 1.264 ± 0.215 µg/mL | decreased significantly | 1.247 ± 0.184 µg/mL | decreased significantly
